Experimental data as given in patent publication US7244741B2, “Fredericamycin derivatives as medicaments for treating tumours” (Biofrontera Discovery GmbH, priority 2002, dated 2007).

Test system: 12 cancer cell lines: LCL (H460/lung), MACL (MCF7, breast), LXFL (529L, lung), LXFA (629L, lung), MEXF (462NL, melanoma), MEXF (514L, melanoma), MAXF (401NL …)
Assay: Biological activity against 12 cancer cell lines (IC70 averaged over all cell lines)
Type: cell-based
Conditions: mean over 12 cancer cell lines; 5 test concentrations
Experimental: Biological Activity Against 12 Cancer Cell Lines: LCL (H460/lung), MACL (MCF7, breast), LXFL ([…], lung), LXFA ([…], lung), MEXF (462NL, melanoma), MEXF ([…], melanoma), MAXF (401NL, breast), RXF ([…], renal), RXF ([…], renal), UXF ([…], uterus), […]1). Efficacy (IC70), averaged over all cell lines in μg/ml with 5 test concentrations.

SMILES | Efficacy (IC70), averaged over all cell lines [µg/mL]
N.N.[Cl][Pt][Cl] [Cisplatin] | 37.1020
C/C=C/C=C/c1cc2cc3c(c(O)c2c(=O)[nH]1)[C@@]1(C(=O)c2c(O)c4c(c(O)c2C1=O)C(=O)C(OC)=CC4=O)C(SCCO)C3 (stereo partly drawn) [Example 3, (8S)-4′,9,9′-trihydroxy-6′-methoxy-7(2-hydroxyethylmercapto)-3-[(1E,3E)-penta-1,3-dienyl]-6,7-dihydrospiro[cyclopenta[g]isoquinoline-8,2′-cyclopenta[b]-napthalene]-1,1′-3′,5′,8′(2H)-pentone] | 0.1340
COc1cccc2c1C(=O)c1c(O)c3c(c(O)c1C2=O)C[C@@](O)(C(=O)CO)C[C@@H]3O[C@H]1C[C@H](N)[C@H](O)[C@H](C)O1 [Adriamycin] | 0.0210
C/C=C/C=C/c1cc2cc3c(c(O)c2c(=O)[nH]1)C1(CC3)C(=O)c2c(O)c3c(c(O)c2C1=O)C(=O)C(OC)=CC3=O (stereo not shown) [Fredericamycin] | 0.2790
